From patent US11607464B2, “Compositions and methods for the treatment and imaging of cancer” (BOARD OF REGENTS OF THE UNIVERSITY OF NEBRASKA, priority 2018, dated 2023)

What was measured:
[1] = system: human glioblastoma cells lines; assay: Cytotoxicity of the nonradioactive analogue; format: cell-based
Procedure: (§1) Cytotoxicity and radiosensitizing properties of the nonradioactive analogue were determined. Specifically, the cytotoxicity of the nonradioactive analogue N-[5-(3′-iodobenzoyl)-1H-benzimidazol-2-yl]carbamate was measured.

[2] = system: human neuroblastoma cell lines; assay: Cytotoxicity of the nonradioactive analogue; format: cell-based
Procedure: as §1

[3] = system: U137 MG; assay: Cell survival and LD50 determination (trypan blue exclusion); format: cell-based, human; conditions: value (std err)
Procedure: (§2) Compounds 1 or 2 dissolved in DMSO were added to the appropriate cell culture medium in concentrations ranging from 0 μM to 1.5 μM. Higher concentrations were not evaluated as the amount of DMSO required to maintain the drugs' solubility was not compatible with good cell culture conditions. The final concentration of DMSO was maintained at ≤0.5% in all flasks including controls. With each treatment group, duplicate flasks of control cells were grown and harvested alongside treated cells. Each treatment was tested in duplicate in at least two independent experiments (n=4-6 per concentration). Cell numbers were determined after 1 hour, 24 hours, and 48 hours of exposure to drugs using the trypan blue exclusion assay. Aliquots of cell suspension were mixed with a 0.2% solution of trypan blue in PBS (1/1; v/v) and counted in Cellometer® (Nexcelom Bioscience, Lawrence, Mass.). […] The reproductive integrity was also evaluated using a clonogenic survival assay.
(§3) Results Cell survival and LD50 determination for compounds 1 and 2 on four human cancer cell lines—BE(2)-C(neuroblastoma), SK-N-SH cells (neuroblastoma), U-87 MG (glioblastoma), and U137 MG.

[4] = system: U-87 MG; assay: as above; format: cell-based, human; conditions: value (std err)
Procedure: as §2, §3

[5] = system: BE(2)-C neuroblastoma cells; assay: Cell survival with drug without and with ionizing radiation (XRT); format: cell-based, human
Procedure: (§4) Alongside all treatment groups, which included: drug alone (n=4), 4 Gy XRT alone (n=4), and drug+XRT (n=4), quadruplicate flasks of controls cells in medium containing DMSO were grown and harvested under identical culture conditions. Each treatment was tested in at least two independent experiments. The final concentration of DMSO was maintained at 0.5% in all flasks including controls. Cells grown in monolayers (50%-60% confluent) were irradiated at the dose of 4 Gy delivered at the dose rate of 1.36 Gy/minute in a Mark I 68A irradiator (J. L. Shepherd & Associates, San Fernando, Calif.). At designated times after treatment, cells were harvested, their numbers determined and plated at 200 and 500 live cells in duplicate or quadruplicate T25 flasks per each treatment. Cells were left undisturbed for ˜7 days after which time fresh medium was added and colonies were allowed to grow for up to 3 weeks. Colonies were washed with PBS, fixed with methanol, and stained with crystal violet. Briefly, colonies were washed with 5 mL ice-cold PBS, followed by 5 mL PBS/methanol (1:1; v/v), and fixed in 5 mL methanol for 10 minutes. Methanol was removed and flasks were left open to dry for a few hours. Crystal violet (3 mL; 0.25% in 1:1 PBS/methanol) was added to each flask to stain cells. After approximately 10 minutes, the dye was removed, flasks were rinsed with tap water followed by distilled water and were left to dry. Colonies were counted by two independent observers using the ImageJ software.

[6] = system: BE(2)-C cells; assay: Clonogenic survival (reproductive integrity) with drug without and with XRT; format: cell-based, human
Procedure: as §4

[7] = system: BE(2)-C; assay: Cell survival and LD50 determination (trypan blue exclusion); format: cell-based, human; conditions: value (std err)
Procedure: as §2, with “The” for “Compounds 1 or 2 dissolved in DMSO were added to the appropriate cell culture medium in concentrations ranging from 0 μM to 1.5 μM. Higher concentrations were not evaluated as the amount of DMSO required to maintain the drugs' solubility was not compatible with good cell culture conditions. The”

[8] = system: SK-N-SH; assay: as above; format: cell-based, human; conditions: value (std err)
Procedure: as §2, with “The” for “Compounds 1 or 2 dissolved in DMSO were added to the appropriate cell culture medium in concentrations ranging from 0 μM to 1.5 μM. Higher concentrations were not evaluated as the amount of DMSO required to maintain the drugs' solubility was not compatible with good cell culture conditions. The”

[9] = Solubility in common solvents; format: physicochemical

COC(=O)Nc1nc2cc(C(=O)c3cccc(I)c3)ccc2[nH]1 [Compound 2, Methyl N [5-(3′-iodobenzoyl)-1H-benzimidazol-2-yl]carbamate]
cytotoxicity [1]: micromolar range | cytotoxicity [2]: low nM range | LD50 [3]: 2.62 (1.35) uM | LD50 [4]: 0.20 (0.06) uM | cancer cells surviving ([5]; 1 micromolar combined with 4 Gy ionizing radiation (XRT)): 4.8% | cancer cells killed ([5]; 1 micromolar, 24 hour exposure): 89.8% | surviving fractions, cytotoxicity ([5]; SK-N-SH and BE(2)-C cells, 1 μM, without and with XRT, 24 hours after treatment, FIG. 8A): very cytotoxic to the cancer cells, particularly in combination with irradiation | clonogenic survival, cytotoxicity ([6]; BE(2)-C, 1 μM for 24 hours, without and with 4 Gy, FIGS. 8B and 8C): very cytotoxic to the cancer cells, particularly in combination with irradiation | cells surviving, reproductive integrity assay ([6]; combined treatment of 4 Gy XRT and drug): < 0.9% | cells surviving, reproductive integrity assay ([6]; drug alone): 7.8% | LD50 [7]: 0.02 (0.01) uM | LD50 [8]: 1.29 (0.24) uM | solubility in common solvents [9]: quite low solubility
